# Results: PubChem BioAssay (NCI)
#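 Briefly, cells in 96-well plates were exposed to five compound concentrations for 48 h, and endpoints were estimated by linear interpolation. The concentration for 50% growth inhibition is given as GI50. Definition used: TGI = concentration required for complete inhibition of growth.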
# Assays:
# Assay in all cases: NCI anticancer screen, dose series, 48 h
# [1] = test system: MALME-3M melanoma
# [2] = test system: TK-10 renal
# [3] = test system: RPMI-8226 leukemia
# [4] = test system: SK-MEL-5 melanoma
# [5] = test system: ACHN renal
# [6] = test system: HCT-116 colon
# [7] = test system: IGROV1 ovarian
# [8] = test system: OVCAR-3 ovarian
# [9] = test system: HOP-92 NSCLC
# [10] = test system: COLO 205 colon
Structure (SMILES),TGI [1],TGI [2],TGI [3],TGI [4],TGI [5],TGI [6],TGI [7],TGI [8],TGI [9],TGI [10],GI50 [1],GI50 [2],GI50 [3],GI50 [4],GI50 [5],GI50 [6],GI50 [10],GI50 [8],GI50 [9],GI50 [7]
C[C@]12CC[C@H](OC3CCCCO3)CC1=CC[C@@H]1C2CC[C@]2(C)/C(=N/O)CCC12 (stereo partly drawn),80.4 µM,70.1 µM,40 µM,> 100 µM,54.3 µM,29.6 µM,> 100 µM,31.1 µM,46 µM,,,,,,,,,,,
CCOC(=O)C1COc2cc(-c3cc(=O)c4ccccc4o3)ccc2O1 (stereo not drawn),> 100 µM,> 100 µM,,> 100 µM,> 100 µM,> 100 µM,> 100 µM,> 100 µM,39.3 µM,> 100 µM,,,,,,,,,,
CNC(=O)CN(CC(N)=O)C(N)=O,> 100 µM,> 100 µM,> 100 µM,> 100 µM,> 100 µM,,> 100 µM,> 100 µM,> 100 µM,> 100 µM,,,,,,,,,,
Cc1ccc(NC(=O)CC(=O)N2N=C(N(CCC#N)c3cccc(C)c3)CC2c2ccccc2)cc1 (stereo not drawn),> 100 µM,,> 100 µM,> 100 µM,> 100 µM,> 100 µM,> 100 µM,> 100 µM,> 100 µM,> 100 µM,,,,,,,,,,
CCOc1cc(-c2ccc[nH]2)[nH]c1/C=C1\N=C(C)C(C(=O)OC)=C1C,4.3 µM,1.5 µM,0.0898 µM,0.0293 µM,1.16 µM,1.08 µM,,1.04 µM,0.049 µM,0.304 µM,216 nM,57.9 nM,21.6 nM,< 13.3 nM,34.4 nM,18.8 nM,0.031 µM,32.9 nM,14.8 nM,
CC(=O)N(Cc1ccccc1)c1ccccc1I(=O)=O,> 100 µM,> 100 µM,32.7 µM,> 100 µM,> 100 µM,,> 100 µM,> 100 µM,67.5 µM,90.4 µM,19300 nM,45200 nM,15700 nM,33600 nM,36000 nM,,28.9 µM,33900 nM,13300 nM,15.5 µM
CC1(C)CC[C@]2(C(N)=O)CC[C@]3(C)C(=CC[C@@H]4[C@@]5(C)C/C(=C/c6ccncc6)C(=O)C(C)(C)[C@@H]5CC[C@]43C)[C@@H]2C1,3.27 µM,7.5 µM,4.44 µM,3.27 µM,4.33 µM,2.99 µM,6.6 µM,3.45 µM,4.77 µM,,1710 nM,2430 nM,1730 nM,1770 nM,2020 nM,1490 nM,,1870 nM,1760 nM,2.29 µM
Cc1cc(Cl)cc2c1NC(=O)C2=O (tested in a mixture with another compound),> 100 µM,> 100 µM,,> 100 µM,> 100 µM,> 100 µM,> 100 µM,> 100 µM,> 100 µM,> 100 µM,,,,,,,,,,
COc1ccc(C2CCc3cc4c(cc3/C2=N/OC(C)=O)OCO4)cc1OC (stereo not drawn),55.2 µM,> 100 µM,47.8 µM,23 µM,,28.1 µM,> 100 µM,55.9 µM,69.6 µM,63.5 µM,,,,,,,,,,
